Experimental findings from ChEMBL document CHEMBL4177698, “Discovery and in vivo effects of novel human natriuretic peptide receptor A (NPR-A) agonists with improved activity for rat NPR-A” (Bioorg Med Chem, 2017) are described below.

pEC50: −log10 of the molar value. The source made the active and inactive calls. The calls are words filed in the database; no cut-off is given here.

Usually pEC50 stands for the EC50 on a negative log10 scale, so that one unit is a factor of ten.

Experiment [1] has as its target T1, Atrial natriuretic peptide receptor 1 (Homo sapiens, UniProt P16066).
T1 sequence (P16066 whole entry): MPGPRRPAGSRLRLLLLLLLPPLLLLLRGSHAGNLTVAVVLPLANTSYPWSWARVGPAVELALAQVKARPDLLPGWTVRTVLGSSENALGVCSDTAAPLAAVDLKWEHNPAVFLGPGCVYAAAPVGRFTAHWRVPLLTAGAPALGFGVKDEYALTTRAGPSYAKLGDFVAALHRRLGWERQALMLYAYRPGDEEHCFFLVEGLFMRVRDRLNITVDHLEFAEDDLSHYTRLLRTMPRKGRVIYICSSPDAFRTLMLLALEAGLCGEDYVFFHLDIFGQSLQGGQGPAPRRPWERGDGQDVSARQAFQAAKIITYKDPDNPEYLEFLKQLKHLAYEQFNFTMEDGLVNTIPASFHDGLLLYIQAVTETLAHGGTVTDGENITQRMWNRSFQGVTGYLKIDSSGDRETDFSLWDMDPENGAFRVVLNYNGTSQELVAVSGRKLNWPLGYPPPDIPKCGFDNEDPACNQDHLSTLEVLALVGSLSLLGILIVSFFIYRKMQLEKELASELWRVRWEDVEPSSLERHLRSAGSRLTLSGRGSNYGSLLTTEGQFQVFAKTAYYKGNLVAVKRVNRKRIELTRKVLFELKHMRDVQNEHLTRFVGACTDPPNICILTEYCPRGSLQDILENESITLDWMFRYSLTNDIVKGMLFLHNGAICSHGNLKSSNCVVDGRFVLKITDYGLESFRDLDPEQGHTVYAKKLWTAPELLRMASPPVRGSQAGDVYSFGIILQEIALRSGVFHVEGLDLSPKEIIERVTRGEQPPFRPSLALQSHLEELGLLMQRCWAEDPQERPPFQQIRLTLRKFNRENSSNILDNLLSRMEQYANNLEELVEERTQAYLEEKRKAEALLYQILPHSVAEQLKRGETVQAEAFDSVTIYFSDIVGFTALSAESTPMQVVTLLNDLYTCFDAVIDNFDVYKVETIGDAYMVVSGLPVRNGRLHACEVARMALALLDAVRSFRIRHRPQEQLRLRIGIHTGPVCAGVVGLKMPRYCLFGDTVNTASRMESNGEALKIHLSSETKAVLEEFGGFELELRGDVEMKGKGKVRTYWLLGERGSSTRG
The experiment is described as follows: Agonist activity at human NPR-A expressed in CHO cells assessed as increase in cGMP accumulation after 30 mins by radioimmunoassay. The experiment is classed as cell-based.

The target of experiment [2] is T2, Atrial natriuretic peptide receptor 1 (Rattus norvegicus, UniProt P18910).
T2 sequence (P18910 whole entry): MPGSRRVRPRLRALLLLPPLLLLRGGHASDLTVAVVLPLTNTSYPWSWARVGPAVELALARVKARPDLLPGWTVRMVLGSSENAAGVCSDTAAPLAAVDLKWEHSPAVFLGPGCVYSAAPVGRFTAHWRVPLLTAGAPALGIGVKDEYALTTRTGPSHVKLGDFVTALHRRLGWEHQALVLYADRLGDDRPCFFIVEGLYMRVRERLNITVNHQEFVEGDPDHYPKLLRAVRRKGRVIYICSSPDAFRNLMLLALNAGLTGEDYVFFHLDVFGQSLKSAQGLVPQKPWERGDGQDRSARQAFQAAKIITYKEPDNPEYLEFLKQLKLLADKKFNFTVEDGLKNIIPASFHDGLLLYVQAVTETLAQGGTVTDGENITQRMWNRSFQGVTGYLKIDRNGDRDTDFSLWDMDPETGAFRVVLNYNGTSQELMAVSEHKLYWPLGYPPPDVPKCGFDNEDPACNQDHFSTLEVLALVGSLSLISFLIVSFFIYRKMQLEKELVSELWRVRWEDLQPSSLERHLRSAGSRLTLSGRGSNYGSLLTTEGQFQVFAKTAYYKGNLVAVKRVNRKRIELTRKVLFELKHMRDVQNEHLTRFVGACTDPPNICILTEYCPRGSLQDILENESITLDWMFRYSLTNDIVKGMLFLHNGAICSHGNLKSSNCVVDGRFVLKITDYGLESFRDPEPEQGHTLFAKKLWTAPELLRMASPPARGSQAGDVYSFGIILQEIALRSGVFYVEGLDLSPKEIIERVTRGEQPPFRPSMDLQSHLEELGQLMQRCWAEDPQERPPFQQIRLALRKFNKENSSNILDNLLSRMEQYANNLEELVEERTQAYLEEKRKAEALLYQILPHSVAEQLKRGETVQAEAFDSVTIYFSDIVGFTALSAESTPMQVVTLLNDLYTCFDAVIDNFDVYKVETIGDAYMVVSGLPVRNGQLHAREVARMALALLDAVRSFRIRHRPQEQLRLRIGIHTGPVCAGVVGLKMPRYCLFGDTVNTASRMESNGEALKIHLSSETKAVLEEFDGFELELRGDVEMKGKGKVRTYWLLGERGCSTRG
The experiment is described as follows: Agonist activity at rat NPR-A expressed in CHO cells assessed as increase in cGMP accumulation after 15 mins by fluorescent assay. The experiment is classed as cell-based.

Experiment [3] concerns Rattus norvegicus. The experiment is described as follows: In vivo agonist activity at NPR-A in Crl:CD(SD) rat assessed as increase in cGMP accumulation in plasma at 1 mg/kg/min, iv administered via infusion for 15 mins measured after 30 mins by radioimmunoassay. Type of experiment: functional, organism-based.
Experiment [4] concerns Rattus norvegicus. The experiment is described as follows: In vivo agonist activity at NPR-A in Crl:CD(SD) rat assessed as increase in cGMP accumulation in lungs at 1 mg/kg/min. The experiment is classed as functional, organism-based.
The subject of experiment [5] is Rattus norvegicus. The experiment is described as follows: In vivo agonist activity at NPR-A in Crl:CD(SD) rat assessed as increase in cGMP accumulation in heart at 1 mg/kg/min. The experiment is classed as functional, organism-based.
Experiment [6] has as its system Rattus norvegicus. The experiment is described as follows: Diuretic activity in Crl:CD(SD) rat assessed as increase in urine volume at 1 mg/kg/min, iv administered as infusion over 30 mins measured after 20 mins post dose. The experiment is classed as functional, organism-based.
Experiment [7] concerns Rattus norvegicus. The experiment is described as follows: Diuretic activity in Crl:CD(SD) rat assessed as increase in urine volume at 1 mg/kg/min, iv administered as infusion over 30 mins measured after 40 mins post dose. Type of experiment: functional, organism-based.

Regarding `COC[C@@H](C)Nc1nc(N[C@H]2CC[C@@H](NC(=O)NC(C)C)CC2)c2nc(-c3cccc(F)c3)ccc2n1`, the pEC50 is 5.40 in experiment [1] and 5.80 in experiment [2].

Take `C[C@H](CO)Nc1nc(N[C@H]2CC[C@@H](NC(=O)NC3CC3)CC2)c2cc(-c3cccc(F)c3)ccc2n1`: the pEC50 is 6.48 in experiment [1] and 6.74 in experiment [2].

As to `C[C@H](CO)Nc1nc(N[C@H]2CC[C@@H](NC(=O)NC(C)(C)CO)CC2)c2cc(-c3cccc(F)c3)ccc2n1`, the pEC50 in experiment [1] is 6.66; in experiment [2], 7.18. Besides, in experiment [3], the outcome was Active.

Turning to `CC(C)[C@H](CO)NC(=O)N[C@H]1CC[C@@H](Nc2nc(N[C@H](C)CO)nc3ncc(-c4cccc(F)c4)cc23)CC1`, the results for the pEC50 in experiment [1] and in experiment [2] were 6.96 and 7.21, respectively. Besides, the outcome in experiment [3], in experiment [4], in experiment [5], in experiment [6] and in experiment [7] was Active.

Take `CC(C)Nc1nc(N[C@H]2CC[C@@H](NC(=O)N(C)C(C)C)CC2)c2cc(-c3cccc(F)c3)ccc2n1`: the negative logarithm of the EC50 (pEC50) in experiment [1] is 5.40; in experiment [2] it was 5.52.

Take `CC(C)NC(=O)N[C@H]1CC[C@@H](Nc2nc(NC(C)C)nc3ccc(-c4cccc(F)c4)cc23)CC1`: the pEC50 was 5.82 in experiment [1] and 6.38 in experiment [2].

For `CC(C)Nc1nc(N[C@H]2CC[C@@H](NC(=O)N[C@@H](CO)C(C)C)CC2)c2cc(-c3cccc(F)c3)cnc2n1`, the negative-log EC50 (pEC50) in experiment [1] was 7.01; in experiment [2], 7.37. In addition, the outcome in experiment [3] was Active.

`COC[C@@H](C)Nc1nc(N[C@H]2CC[C@@H](NC(=O)NC3CC3)CC2)c2cc(-c3cccc(F)c3)ccc2n1`: the negative logarithm of the EC50 (pEC50) is 6.47 in experiment [1] and 6.57 in experiment [2].

`C[C@H](CO)Nc1nc(N[C@H]2CC[C@H](NC(=O)N3CC(O)C3)CC2)c2cc(-c3cccc(F)c3)ccc2n1`: the pEC50 in experiment [1] is 6.38; in experiment [2], 6.05.

Regarding `CC(C)NC(=O)N[C@H]1CC[C@@H](Nc2nc(N[C@H](C)CO)nc3ccc(-c4cccc(F)c4)cc23)CC1`, the pEC50 was 6.49 in experiment [1] and 7.13 in experiment [2].

Turning to `COC[C@@H](C)Nc1nc(N[C@H]2CC[C@@H](NC(=O)NC(C)C)CC2)c2cc(-c3cccc(F)c3)ccc2n1`, the pEC50 in experiment [1] was 6.70; in experiment [2], 6.80.

`CC(C)Nc1nc(N[C@H]2CC[C@@H](NC(=O)N[C@@H](CO)C(C)C)CC2)c2cc(-c3cccc(F)c3)ccc2n1`: the negative-log EC50 (pEC50) in experiment [1] was 6.00; in experiment [2] it was 6.54.

With `COC[C@H](C)Nc1nc(N[C@H]2CC[C@@H](NC(=O)NC3CC3)CC2)c2cc(-c3cccc(F)c3)ccc2n1`, the values for the pEC50 in experiment [1] and in experiment [2] were 6.07 and 5.74, respectively.

Consider `CC(C)[C@H](CO)NC(=O)N[C@H]1CC[C@@H](Nc2nc(N[C@H](C)CO)nc3ccc(-c4cccc(F)c4)cc23)CC1`, for which the values for the negative logarithm of the EC50 (pEC50) in experiment [1] and in experiment [2] were 7.15 and 7.19, respectively. Also, in experiment [3], the result was Active.

For `CC(C)N[C@H]1C[C@H](C(=O)N[C@H]2CC[C@H](Nc3nc(N[C@H](C)CO)nc4ccc(-c5ccccc5)cc34)CC2)C1`, the figures for the negative-log EC50 (pEC50) in experiment [1] and in experiment [2] were 6.49 and 5.70, respectively.

Regarding `COCCNc1nc(N[C@H]2CC[C@@H](NC(=O)NC(C)C)CC2)c2cc(-c3cccc(F)c3)ccc2n1`, the pEC50 in experiment [1] is 6.42; in experiment [2], 6.21.

With `CC(C)NC(=O)N[C@H]1CC[C@H](Nc2nc(N[C@H](C)CO)nc3ccc(-c4cccc(F)c4)cc23)CC1`, the negative-log EC50 (pEC50) in experiment [1] is 6.34; in experiment [2], 6.28.

Consider `CC(C)[C@H](CO)NC(=O)N[C@H]1CC[C@@H](Nc2nc(N[C@H](C)CO)nc3cnc(-c4cccc(F)c4)cc23)CC1`, for which the results for the pEC50 in experiment [1] and in experiment [2] were 6.21 and 6.89, respectively.

Take `C[C@H](CO)Nc1nc(N[C@H]2CC[C@H](NC(=O)[C@H]3C[C@H](O)C3)CC2)c2cc(-c3ccccc3)ccc2n1`: the pEC50 in experiment [1] is 6.05; in experiment [2] it was 5.74.

As for `C[C@H](CO)Nc1nc(N[C@H]2CC[C@H](NC(=O)[C@H]3C[C@H](O)C3)CC2)c2cc(-c3cccc(F)c3)ccc2n1`, the negative logarithm of the EC50 (pEC50) is 6.33 in experiment [1] and 6.15 in experiment [2].

On to `CC(C)NC(=O)N[C@H]1CC[C@@H](Nc2nc(N(C)CCO)nc3ccc(-c4cccc(F)c4)cc23)CC1`, for which the pEC50 in experiment [1] is 6.14; in experiment [2], 5.68.

Turning to `CC(C)[C@@H](CO)NC(=O)N[C@H]1CC[C@@H](Nc2nc(N[C@H](C)CO)nc3ccc(-c4cccc(F)c4)cc23)CC1`, the negative-log EC50 (pEC50) in experiment [1] is 7.39; in experiment [2] it was 6.48.

Regarding `C[C@H](CO)Nc1nc(N[C@H]2CC[C@@H](NC(=O)NC3CCCN(C)C3)CC2)c2cc(-c3cccc(F)c3)ccc2n1` (stereo partly specified), the figures for the pEC50 in experiment [1] and in experiment [2] were 6.11 and 5.49, respectively.

Regarding `C[C@H](CO)Nc1nc(N[C@H]2CC[C@@H](NC(=O)NC3(CO)CCCC3)CC2)c2cc(-c3cccc(F)c3)ccc2n1`, the results for the pEC50 in experiment [1] and in experiment [2] were 7.11 and 6.92, respectively.
